Entries after “also recorded” stand apart in the source; their conditions may differ. Like-named read-outs stand apart in the source and are kept apart here.
Key:
Assay type in all cases: cell-based
syn-pre-pro-Δ89-CB1R [1] = biological target: T1, syn-pre-pro-Δ89-CB1R (Homo sapiens, UniProt P21554); assay: cell-based; conditions: for EC50 values / activity in words: PINACA agonist series
T1 construct: expressed in transfected cells; host or cells: Saccharomyces cerevisiae BY4741-derived ZsGreen reporter strain (Gpa1-Gαi3 chimera; also sterol-modified strains ST01–ST15)

CB1 Cannabinoid Receptor = biological target: T2, CB1 Cannabinoid Receptor (Homo sapiens, UniProt P21554); assay: Mammalian cell calcium assay (Gα15, Fluo-8 fluorescence); conditions: high concentrations (10 μM), four-point dose response
T2 construct: Since the human CB1R strain uses the full-length receptor; host or cells: Ready-to-Assay CB1 Cannabinoid Receptor Frozen Cells (commercial human cell line with promiscuous Gα15, division-arrested)
Protocol: To validate the findings and further evaluate the performance of our yeast screening assay, we retested a subset of our library in a conventional mammalian cell assay. We acquired human cell lines depleted of native GPCRs and containing the promiscuous Gα15, wherein GPCR activation triggers intracellular calcium release, which is measured by Fluo-8 fluorescence (see Section 4). We selected eight compounds for side-by-side testing between the yeast and human host for CB1R (Figure 4a–d). To maximize the number of compounds tested per plate, we performed a limited four-point dose response on the mammalian cells (Figure 4a,b).
Mammalian cell assays were performed in Eurofins Ready-to-Assay™ CB1 Cannabinoid Receptor Frozen Cells. Cells were division-arrested, which limited the number of samples that could be measured, so a limited 4-point dose response was performed. Cells were seeded in 96-well plates and grown for 24 h. Cells were washed with Hank’s Balanced Salt Solution (HBSS) with 20 mM HEPES and 2.5 mM Probenecid at pH 7.4. […] Cells with dye were incubated at 37 °C for 1 h before fluorescent measurement on a Flexstation 3-plate reader (Molecular Devices, San Jose, CA, USA). Baseline fluorescence was measured for 10 s before 50 μL ligands were injected into 100 μL cells. Samples were measured for 180 s and recorded values were measured as ΔF/F0 (Fmax − Fmin/Fmin).

Syn-pre-pro CB1R = biological target: T3, Syn-pre-pro CB1R (Homo sapiens, UniProt P21554); assay: Yeast ZsGreen reporter strain with full-length syn-pre-pro CB1R
T3 construct: expressed in transfected cells; host or cells: Saccharomyces cerevisiae BY4741-derived ZsGreen reporter strain (Gpa1-Gαi3 chimera)

syn-pre-pro-Δ89-CB1R [2] = biological target: T1, syn-pre-pro-Δ89-CB1R; assay: syn-pre-pro-Δ89-CB1R dose response in sterol-modified yeast strains ST01–ST15
Excerpt: Ergosterol and cholesterol share a common zymosterol precursor that can be converted to cholesterol through a four-enzyme pathway that produces seven downstream metabolites (Figure 2b). We recently replaced the native yeast sterol pathway with cholesterol biosynthesis enzymes to create a small library of yeast strains that produce varying levels of these seven metabolites in the GpaI-Gai3 chimeric ZsGreen human GPCR reporter strain [30]. The syn-pre-pro-Δ89-CB1R expression construct was transformed into fifteen strains (ST01–ST15, Figure 2c, Supplementary Table S1) selected to cover the metabolic and structural sterol space. We then performed dose response experiments with ACEA and measured the ZsGreen via fluorescent cytometry.
Yeast colonies were picked and grown overnight to saturation in pH 5.8 SD-His media in a 2.2 mL deep well plate (Axygen, Corning, NY, USA), grown in a plate-shaking incubator (30 °C, 1000 rpm, 3 mm orbital). In the morning, cultures were diluted to 1:10 or 1:25 in SD-His media buffered to pH 7.1 with 100 mM MOPSO (unless otherwise specified). Ligands were added to the culture and incubated with shaking for 8 h. Cells were then washed three times with ice-cold Tris buffer (pH 7) and diluted to 1:20 for cytometry. All cytometry was performed on a Sony SA3800 spectral analyzer. Each sample was tested for 10,000 events and read at a rate of 1000 events per second. All assays as reported here were filtered only for singlet populations.

WT CB1R = biological target: T4, WT CB1R (Homo sapiens, UniProt P21554)
T4 construct: expressed in transfected cells; host or cells: Saccharomyces cerevisiae BY4741-derived ZsGreen reporter strain (Gpa1-Gαi3 chimera)

Δ89-CB1R = biological target: T5, Δ89-CB1R (Homo sapiens, UniProt P21554); assay: Yeast ZsGreen reporter strain with N-terminally truncated CB1R
T5 construct: expressed in transfected cells; host or cells: Saccharomyces cerevisiae BY4741-derived ZsGreen reporter strain (Gpa1-Gαi3 chimera)

[3] = FUBINACA and PINACA compounds, 8 h, n = 3 (Figure 3), read-out: EC50, dose response
[4] = read-out: EC50, ACEA dose response
[5] = Supplementary Table S2, read-out: EC50 (M) Yeast CB1R
[6] = compound at 10 nM, screen, n = 1

T1 sequence (P21554 90-472 limits assumed, stated change not applied): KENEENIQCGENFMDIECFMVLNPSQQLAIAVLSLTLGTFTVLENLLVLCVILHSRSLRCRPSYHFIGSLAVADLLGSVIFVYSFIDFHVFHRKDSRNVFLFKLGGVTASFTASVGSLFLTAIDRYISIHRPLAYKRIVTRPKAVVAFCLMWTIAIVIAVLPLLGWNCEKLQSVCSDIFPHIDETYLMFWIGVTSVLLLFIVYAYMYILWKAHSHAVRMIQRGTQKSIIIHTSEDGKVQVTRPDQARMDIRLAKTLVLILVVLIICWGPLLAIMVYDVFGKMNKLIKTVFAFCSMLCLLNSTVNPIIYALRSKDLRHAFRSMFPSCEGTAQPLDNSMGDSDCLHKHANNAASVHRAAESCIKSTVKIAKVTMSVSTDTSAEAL
T3 sequence (P21554 whole entry): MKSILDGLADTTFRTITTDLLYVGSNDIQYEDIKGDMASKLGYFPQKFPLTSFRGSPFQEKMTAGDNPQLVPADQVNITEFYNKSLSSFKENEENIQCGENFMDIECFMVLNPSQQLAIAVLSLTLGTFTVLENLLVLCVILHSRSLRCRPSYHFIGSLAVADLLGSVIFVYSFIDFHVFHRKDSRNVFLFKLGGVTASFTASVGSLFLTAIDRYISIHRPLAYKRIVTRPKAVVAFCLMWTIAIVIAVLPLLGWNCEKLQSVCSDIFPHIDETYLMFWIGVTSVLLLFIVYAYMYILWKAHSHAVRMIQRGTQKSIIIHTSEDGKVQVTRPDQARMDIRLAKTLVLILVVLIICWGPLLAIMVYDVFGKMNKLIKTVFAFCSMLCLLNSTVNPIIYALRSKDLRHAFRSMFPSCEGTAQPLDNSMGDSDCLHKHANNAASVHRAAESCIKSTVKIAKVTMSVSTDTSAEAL
T4 sequence (P21554 whole entry): as above
T5 sequence (P21554 with tags, fused parts or gaps): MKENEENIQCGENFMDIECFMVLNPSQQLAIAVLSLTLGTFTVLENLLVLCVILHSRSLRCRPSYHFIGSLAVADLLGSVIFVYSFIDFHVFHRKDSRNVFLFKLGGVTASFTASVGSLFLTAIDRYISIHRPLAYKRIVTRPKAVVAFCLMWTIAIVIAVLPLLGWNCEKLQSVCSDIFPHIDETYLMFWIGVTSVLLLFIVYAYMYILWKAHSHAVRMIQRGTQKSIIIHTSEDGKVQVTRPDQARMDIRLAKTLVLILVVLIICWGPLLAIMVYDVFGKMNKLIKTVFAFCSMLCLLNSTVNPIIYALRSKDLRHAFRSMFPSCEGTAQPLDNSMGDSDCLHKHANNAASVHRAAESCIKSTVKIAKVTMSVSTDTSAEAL
T2 sequence (P21554 whole entry): as the sequence (P21554 whole entry) above

SMILES: CCC(C)(NC(=O)c1nn(Cc2ccc(F)cc2)c2ccccc12)C(N)=O (single isomer, unassigned) [AB-FUBINACA isomer 2]
- maximal signaling in dose response (syn-pre-pro-Δ89-CB1R [1]): lower response
- EC50 (syn-pre-pro-Δ89-CB1R [1]; [3]): 2.3e-10 M

SMILES: CC[C@H](C)[C@H](NC(=O)c1nn(CCCCCF)c2ccccc12)C(N)=O (single isomer, unassigned) [5-fluoro ADB-PINACA isomer 2]
- EC50 values / activity in words (syn-pre-pro-Δ89-CB1R [1]): drastic loss of activity
- activity in the yeast assay (syn-pre-pro-Δ89-CB1R [1]; side-by-side with mammalian cells, high concentrations (10 μM), listed as 5-fluoro 2-ADB-PINACA isomer 2): lowest activity; also recorded: partial agonism
- induction of calcium dye fluorescence (CB1 Cannabinoid Receptor): failed to induce significant levels of fluorescence

SMILES: CCCCC/C=C\C/C=C\C/C=C\C/C=C\CCCC(=O)NCCCl [ACEA, Arachidonyl-2′-chloroethylamide]
- EC50 (Syn-pre-pro CB1R; Syn-pre-pro CB1R in yeast, 8 h, n = 3, read-out: EC50, ACEA dose response): 40 nM
- fold activation (Syn-pre-pro CB1R; syn-pre-pro modification alone): approximately 7 fold
- Fold Change CB1R (syn-pre-pro-Δ89-CB1R [2]; Strain ST01): 73.2 fold
- EC50 (syn-pre-pro-Δ89-CB1R [2]; Strain ST01, read-out: EC50): 73 nM
- EC50 (syn-pre-pro-Δ89-CB1R [2]; Strain ST02, read-out: EC50): 305 nM
- EC50 (syn-pre-pro-Δ89-CB1R [2]; Strain ST03, read-out: EC50): 144 nM
- EC50 (syn-pre-pro-Δ89-CB1R [2]; Strain ST04, read-out: EC50): 96 nM
- EC50 (syn-pre-pro-Δ89-CB1R [2]; Strain ST05, read-out: EC50): 107 nM
- EC50 (syn-pre-pro-Δ89-CB1R [2]; Strain ST06, read-out: EC50): 74 nM
- EC50 (syn-pre-pro-Δ89-CB1R [2]; Strain ST08, read-out: EC50): 102 nM
- EC50 (syn-pre-pro-Δ89-CB1R [2]; Strain ST09, read-out: EC50): 134 nM
- EC50 (syn-pre-pro-Δ89-CB1R [2]; Strain ST10, read-out: EC50): 253 nM
- EC50 (syn-pre-pro-Δ89-CB1R [2]; Strain ST11, read-out: EC50): 160 nM
- EC50 (syn-pre-pro-Δ89-CB1R [2]; Strain ST12, read-out: EC50): 140 nM
- Fold Change CB1R (syn-pre-pro-Δ89-CB1R [2]; Strain ST13): 34.3 fold
- EC50 (syn-pre-pro-Δ89-CB1R [2]; Strain ST13, read-out: EC50): 99 nM
- EC50 (syn-pre-pro-Δ89-CB1R [2]; Strain ST14, read-out: EC50): 640 nM
- EC50 (syn-pre-pro-Δ89-CB1R [2]; Strain ST15, read-out: EC50): 604 nM
- EC50 (syn-pre-pro-Δ89-CB1R [2]; cholesterol intermediate strain ST07, text value, read-out: EC50): 65 nM
- EC50 (syn-pre-pro-Δ89-CB1R [2]; mean over ST01–ST15, read-out: average EC50 value across the intermediate strains): 199 nM
- fold signaling (activation) (WT CB1R): < 4 fold
- EC50 (WT CB1R; [4]): 1300 nM
- fold activation (Δ89-CB1R; truncated receptor): 15 fold
- EC50 (Δ89-CB1R; Δ89-CB1R in yeast, 8 h, n = 3, read-out: EC50, ACEA dose response): 5050 nM
- Fold Change CB1R (syn-pre-pro-Δ89-CB1R [1]): 93.6 ± 15.6 fold
- drop in sensitivity compared to the full-length syn-pre-pro construct (syn-pre-pro-Δ89-CB1R [1]): 3.8 fold
- fold activation (syn-pre-pro-Δ89-CB1R [1]): 28 fold
- EC50 (syn-pre-pro-Δ89-CB1R [1]; [4]): 1.5e-07 M

SMILES: CCCC(NC(=O)c1nn(Cc2ccc(F)cc2)c2ccccc12)C(N)=O (single isomer, unassigned) [AB-FUBINACA isomer 1]
- maximal signaling in dose response (syn-pre-pro-Δ89-CB1R [1]): high maximal signaling
- EC50 (syn-pre-pro-Δ89-CB1R [1]; [3]): 1e-11 M
- EC50 (syn-pre-pro-Δ89-CB1R [1]; [5]): 4.74e-10 M

SMILES: COc1ccc(C(=O)c2c(C)n(CCN3CCOCC3)c3cc(Br)ccc23)cc1 [WIN54,461]
- relative fluorescence of the ACEA positive control (syn-pre-pro-Δ89-CB1R [1]; [6]): less than 25%

SMILES: CC(C)C(NC(=O)c1nn(Cc2ccc(F)cc2)c2ccccc12)C(N)=O (stereo not drawn) [AB-FUBINACA]
- maximal activity (syn-pre-pro-Δ89-CB1R [1]): 79–84%
- maximal signaling in dose response (syn-pre-pro-Δ89-CB1R [1]): high maximal signaling
- EC50 (syn-pre-pro-Δ89-CB1R [1]; EC50 (M) Yeast CB1R): 1.13e-11 M
- EC50 (syn-pre-pro-Δ89-CB1R [1]; EC50, dose response): 6.6e-10 M

SMILES: O=C(Oc1cccc2cnccc12)c1cn(CCCCCF)c2ccccc12 [5-fluoro PB-22 5-hydroxyisoquinoline isomer]
- EC50 (syn-pre-pro-Δ89-CB1R [1]; [5]): 9.09e-12 M

SMILES: Cc1c(C(=O)c2ccccc2)c(N)c(-c2ccccc2)n1Cc1ccc(Cl)cc1 [URB447]
- relative fluorescence of the ACEA positive control (syn-pre-pro-Δ89-CB1R [1]; [6]): less than 25%

SMILES: C=C1CCC[C@]2(C)CC[C@@H](C(C)(C)O)C[C@@H]12 [β-Eudesmol]
- activity in terpene library screen (syn-pre-pro-Δ89-CB1R [1]): found to activate CB1R
- signaling in terpene dose response (syn-pre-pro-Δ89-CB1R [1]; dose response, n = 3): showed signaling at high (10 µM) concentrations

SMILES: CCC(C(N)=O)N(C)C(=O)c1nn(Cc2ccc(F)cc2)c2ccccc12 (single isomer, unassigned) [AB-FUBINACA isomer 5]
- maximal signaling in dose response (syn-pre-pro-Δ89-CB1R [1]): lower response
- EC50 (syn-pre-pro-Δ89-CB1R [1]; [3]): 1.59e-08 M

SMILES: CC(C)[C@H](NC(=O)c1cn(Cc2ccccc2)c2ccccc12)C(N)=O [AB-BICA]
- EC50 (syn-pre-pro-Δ89-CB1R [1]; [5]): 5.66e-09 M

SMILES: CCCCCn1nc(C(=O)NC(C(N)=O)C(C)(C)C)c2ccccc21 (stereo not drawn) [ADB-PINACA]
- maximal activity (syn-pre-pro-Δ89-CB1R [1]): 79–84%
- EC50 (syn-pre-pro-Δ89-CB1R [1]; [3]): 9e-11 M
- EC50 values / activity in words (syn-pre-pro-Δ89-CB1R [1]): low nanomolar range
- EC50 (syn-pre-pro-Δ89-CB1R [1]; [5]): 8.34e-12 M

SMILES: CCCCCCC(C)(C)c1cc(O)c2c(c1)OC(C)(C)[C@H]1CC=C(CO)C[C@H]21 [HU-211]
- relative fluorescence of the ACEA positive control (syn-pre-pro-Δ89-CB1R [1]): less than 25%

SMILES: CCCCCn1nc(C(=O)NC(C(N)=O)C(C)C)c2ccccc21 (stereo not drawn) [AB-PINACA]
- maximal activity (syn-pre-pro-Δ89-CB1R [1]): 79–84%
- EC50 (syn-pre-pro-Δ89-CB1R [1]; [3]): 1.21e-09 M
- EC50 values / activity in words (syn-pre-pro-Δ89-CB1R [1]): low nanomolar range

SMILES: CC(C)=CCCC(C)CCO (stereo not drawn) [(+)-β-Citronellol]
- activity in terpene library screen (syn-pre-pro-Δ89-CB1R [1]): found to activate CB1R

Reference: publication PMC11173002, “A Humanized CB1R Yeast Biosensor Enables Facile Screening of Cannabinoid Compounds” (International Journal of Molecular Sciences, 2024)
